According to patent US6344456B1, “Piperazinone derivatives and their uses” (Laboratoire L. Lafon, priority 1998, dated 2002):
Read-outs that look alike come from different tables or passages of the source.

Assays:
Human Platelets = experiment: In vitro inhibition of collagen-induced platelet aggregation, human platelet-rich plasma; format: cell-based; settings: human PRP, collagen 5 μg/ml, 3 minutes of contact at 37° C., read-out: IC50 (M) in vitro Man
Method: A study of the inhibitory activity of the compounds of formula I on platelet aggregation was carried out in vitro, i.e. by direct contact of solutions of variable concentrations of the compounds with platelets freshly separated from a sample of whole blood, taken under standardized conditions, from laboratory animals (guinea pigs) and from healthy human subjects who have not received any substances or drugs that might interfere with blood clotting. The anti-platelet-aggregating activity was also studied ex vivo/vitro, i.e. after administration of the substances claimed in guinea pigs to measure the intensity and duration of the anti-aggregating action induced by the fraction of the test product absorbed and circulating in the blood. 1.2 Study on Human Platelets Venous blood is taken from a group of ten healthy human subjects of the same age, by puncture into a vein of the fold of the elbow and is collected in a glass tube containing aqueous 0.129 M sodium citrate solution (1 volume of citrate solution per 9 volumes of blood). Each tube is then centrifuged a first time at 20° C. and 100 g for 15 minutes in order to obtain the platelet-rich plasma (PRP); after removing this PRP, the tube is again centrifuged at 2,000 g for 15 minutes in order this time to remove the platelet-poor plasma (PPP). For each identified sample of PRP, the platelets are counted using a Coulter ZM counter. […] A control test intended to check the possible effect of the solvents (reference value) on the platelet aggregation is introduced into each measurement series, and is measured after 3 minutes of contact at 37° C. with agitation.

[1] = system: platelet aggregation induced by collagen; experiment: Ex vivo/vitro anti-platelet-aggregating activity in guinea pigs after gastric administration; parameters: species or system guinea pig; settings: for % of g.r. inhibition guinea pig ex vivo d = 150 mg/kg −1 h: administered 1 h before blood is taken; for % of g.r. inhibition guinea pig ex vivo d = 150 mg/kg −2 h: administered 2 h before blood is taken
Method: (§1) A study of the inhibitory activity of the compounds of formula I on platelet aggregation was carried out in vitro, i.e. by direct contact of solutions of variable concentrations of the compounds with platelets freshly separated from a sample of whole blood, taken under standardized conditions, from laboratory animals (guinea pigs) and from healthy human subjects who have not received any substances or drugs that might interfere with blood clotting. The anti-platelet-aggregating activity was also studied ex vivo/vitro, i.e. after administration of the substances claimed in guinea pigs to measure the intensity and duration of the anti-aggregating action induced by the fraction of the test product absorbed and circulating in the blood.
2. ex vivo/vitro Pharmacological Study in Guinea Pigs
Evaluation of the anti-platelet-aggregating activity of the compounds is carried out in the same guinea pigs as those mentioned above (Dunkin-Hartley strain). The administration of each product in a range of doses from 150 mg/kg to 10 mg/kg and of each vehicle (5 ml/kg) is carried out via the gastric route (g.r.) 1h or 2h or 4h or 6h or 8h or 12h before blood is taken from the guinea pigs fasted the day before. The allocation of the treatments to the animals is random.
The blood is taken and then treated under the same conditions as those described above for the in vitro studies.
The results of the inhibition of the platelet aggregation obtained for each test concentration make it possible to calculate the IC50 concentration of each test product and the kinetics of the inhibitory effect and its duration of action.

Guinea Pig Platelets = experiment: In vitro inhibition of collagen-induced platelet aggregation, guinea pig platelet-rich plasma; format: cell-based; settings: guinea pig PRP, collagen 1 μg/ml, 3 minutes of contact at 37° C.
Method: as §1
1.1. Studies on Guinea Pig Platelets
Blood is taken by intracardiac puncture from male Dunkin-Hartley guinea pigs (weighing about 330 g), at a rate of 4.5 ml per 0.5 ml of trisodium citrate (concentration of the aqueous solution: 1.55%) in order to prevent all trace of clotting. The platelet-rich plasma (PRP) is obtained by centrifuging the tubes of whole blood for 15 minutes at 150 g.
The PRPs are collected as. “pools”. The platelets contained in these pools are counted using a Coulter ZM haematology automatic device: if necessary, a dilution is carried out in order for the platelet concentration in the plasma to be between 200,000 and 400,000 platelets/mm^3. Simultaneously, other samples of these pools serve to prepare the platelet-poor plasma (PPP) by centrifugation at 1,500 g for 15 minutes.
The kinetic study of the platelet aggregation is carried out by adding a collagen solution (1 μg/ml) to a volume of PRP, using a Chrono-log Corporation aggregometer (490-D1 or 560 VS) which uses an optical detection of the appearance of the thrombus.
The measurements of the aggregation inhibition are carried out after 3 minutes of contact at 37° C. with agitation.

[2] = Cavia porcellus, Platelet, 0.05 h

Row | IC50 (Human Platelets; Platelet, 0.05 h) [M] | IC50 (Guinea Pig Platelets; [2]) [µM] | Compound | anti-aggregating action ex-vivo in guinea pigs, oral dose 10 mg/kg, 1h ([1]; 10 mg/kg, administered 1h before the aggregation test) [%] | anti-aggregating action ex-vivo in guinea pigs, oral dose 10 mg/kg, 2h ([1]; 10 mg/kg, administered 2h before the aggregation test) [%] | % of g.r. inhibition guinea pig ex vivo d = 150 mg/kg −1 h [1] [%] | % of g.r. inhibition guinea pig ex vivo d = 150 mg/kg −2 h [1] [%] | IC50 (Human Platelets) [M] | IC50 (Guinea Pig Platelets) [µM]
1 | 5.2e-06 | 4.8 | Cl.N=C(N)c1ccc(N2CCN(CC(=O)NCCC(=O)O)C(=O)C2)cc1 [Example 17, 3-{[2-(4-{4-[amino(imino)methyl]phenyl}-2-oxopiperazino)acetyl]amino}propanoic acid hydrochloride] |  |  | −43 | −38 |  | 
2 | 7.1e-05 | 0.51 | CCOC(=O)CC(CCc1ccccc1)NC(=O)CN1CCN(c2ccc(C(=N)N)cc2)CC1=O (centres unmarked) [Example 22, Ethyl 3-{[2-(4-{4-[amino(imino)methyl]phenyl}-2-oxopiperazino)acetyl]amino}-5-phenylpentanoate acetate] |  |  |  |  |  | 
3 | 8.1e-05 | 0.2 | CC(=O)O.CCOC(=O)CC(NC(=O)CN1CCN(c2ccc(C(=N)N)cc2)CC1=O)c1ccc2c(c1)OCO2 (centres unmarked) [Example 18, Ethyl 3-{[2-(4-{4-[amino(imino)methyl]phenyl}-2-oxopiperazino)acetyl]amino}-3-(1,3-benzodioxol-5-yl)propanoate acetate] |  |  | −70 | −69 |  | 

Continued, compound first:

Row | Compound | IC50 (Human Platelets; Platelet, 0.05 h) [M] | IC50 (Guinea Pig Platelets; [2]) [µM] | anti-aggregating action ex-vivo in guinea pigs, oral dose 10 mg/kg, 1h ([1]; 10 mg/kg, administered 1h before the aggregation test) [%] | anti-aggregating action ex-vivo in guinea pigs, oral dose 10 mg/kg, 2h ([1]; 10 mg/kg, administered 2h before the aggregation test) [%] | % of g.r. inhibition guinea pig ex vivo d = 150 mg/kg −1 h [1] [%] | % of g.r. inhibition guinea pig ex vivo d = 150 mg/kg −2 h [1] [%] | IC50 (Human Platelets) [M] | IC50 (Guinea Pig Platelets) [µM]
4 | Cl.N=C(N)c1ccc(N2CCN(CC(=O)NC(CC(=O)O)c3ccc4c(c3)OCO4)C(=O)C2)cc1 (centres unmarked) [Example 19, 3-{[2-(4-{4-[amino(imino)methyl]phenyl}-2-oxopiperazino)acetyl]amino}-3-(1,3-benzodioxol-5-yl)propanoic acid hydrochloride] | 3.4e-07 | 0.15 | 57 | 24 | −69 | −78 |  | 
5 | 3-{[2-(4-{4-[amino(imino)methyl]phenyl}-2-oxopiperazino)acetyl]amino}-3-(pyridyl)propanoic acid acetate [Example 21] |  |  |  |  | −78 | −79 | 8.6e-07 | 0.16
6 | Cl.N=C(N)c1ccc(N2CCN(CC(=O)NC(CC(=O)O)c3ccc4c(c3)OCO4)CC2=O)cc1 (centres unmarked) [Example 30, 3-{[2-(4-{4-[amino(imino)methyl]phenyl}-3-oxopiperazino)acetyl]amino}-3-(1,3-benzodioxol-5-yl)propanoic acid hydrochloride] | 1.2e-06 | 15 |  |  | −14 | −17 |  | 
7 | Cl.N=C(N)c1ccc(N2CCN(CC(=O)NCCC(=O)O)CC2=O)cc1 [Example 28, 3-{[2-(4-{4-[amino(imino)methyl]phenyl}-3-oxopiperazino)acetyl]amino}propanoic acid hydrochloride] | 1.4e-06 | 16 |  |  | −28 | −23 |  | 
8 | Ethyl 3-{[2-(4-{4-[amino(imino)methyl]phenyl}-2-oxopiperazino)-acetyl]amino}-3-(pyridyl)propanoate acetate [Example 20] |  |  |  |  | −65 | −64 | 2.8e-05 | 0.63
9 | CCOC(=O)CCNC(=O)CN1CCN(c2ccc(C(N)=NO)cc2)CC1=O [Example 1, Ethyl 3-{[12-(4-{4-[amino(hydroxyimino)methyl]phenyl}-2-oxopiperazino)acetyl]amino}propanoate] |  |  |  |  | −72 | −73 |  | > 1000
10 | CC(=O)O.CCOC(=O)CCNC(=O)CN1CCN(c2ccc(C(=N)N)cc2)CC1=O [Example 16, Ethyl 3-{[2-(4-{4-[amino(imino)methyl]phenyl}-2-oxopiperazino)acetyl]amino}proanoate acetate] |  |  |  |  | −75 | −73 |  | 3.8
